Each compound was assayed against T1, SOS1 binding to KRAS G12C (Homo sapiens, UniProt Q07889) (assay: SOS1 GTP substitution inhibition test (HTRF/TR-FRET, KRAS G12C-SOS1 binding inhibitory ability)). Conditions: HTRF, GST-KRAS G12C (2-169), SOS1-Strep (564-1049), 1.6, 8, 40, 200, 1,000 nM.
T1 construct: consisting of amino acid residues 564 to 1049 which are the catalytic domain; purchased Reaction Biology Corporation MSC-11-502 (SOS1-Strep); MSC-11-538 (KRAS G12C)
T1 sequence (Q07889 564-1049): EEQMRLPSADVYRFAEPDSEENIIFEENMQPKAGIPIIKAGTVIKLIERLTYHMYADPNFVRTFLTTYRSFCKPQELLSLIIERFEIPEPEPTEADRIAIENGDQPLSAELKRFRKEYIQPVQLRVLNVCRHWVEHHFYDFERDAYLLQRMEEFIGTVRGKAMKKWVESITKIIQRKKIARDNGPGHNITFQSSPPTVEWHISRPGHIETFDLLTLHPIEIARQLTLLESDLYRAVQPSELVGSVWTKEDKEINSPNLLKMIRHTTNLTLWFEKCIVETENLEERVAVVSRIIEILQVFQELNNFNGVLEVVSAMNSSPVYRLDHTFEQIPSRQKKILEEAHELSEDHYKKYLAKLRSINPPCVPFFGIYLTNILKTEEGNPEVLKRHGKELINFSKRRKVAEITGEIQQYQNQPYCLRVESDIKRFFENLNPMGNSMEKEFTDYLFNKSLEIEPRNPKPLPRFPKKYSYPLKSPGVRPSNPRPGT
Format: biochemical
Procedure: In order to determine whether the substitution function of SOS1 binding to KRAS G12C is inhibited by the above-described example compounds, a homogeneous time-resolved fluorescence (HTRF) test was performed using G12C(#MSC-11-538) and SOS1-Strep(#MSC-11-502) purchased from Reaction Biology Corporation (MA, USA). The activity of SOS1 enzyme was determined by measuring the amount of GTP bound to KRAS G12C proteins, using the principle of time-resolved fluorescence energy transfer (TR-FRET). Based on the principle that terbium bound to the GST-binding antibody of the GST-KRAS G12C protein acts as a donor of fluorescence resonance energy transfer (FRET), and the GTP bound to the KRAS G12C protein is labeled with the fluorescent agent DY-647P1 and acts as a receiver, when the more GTP is bound to the KRAS G12C protein by the substitution reaction of SOS1 according to this test, the higher HTRF or FRET signal is measured. To summarize, glutathione S-transferase (GST)-tagged KRAS G12C proteins (consisting of amino acid residues 2 to 169) required for the reaction, streptavidin-tagged SOS1 proteins (consisting of amino acid residues 564 to 1049 which are the catalytic domain), anti-GST antibody (#61[…]) purchased from CISBIO corporation, nucleic acid (#NU-820-647P1) purchased from Jena Bioscience GmbH were mixed in a buffer solution formed from 10 mM HEPES pH7.4, 150 mM NaCl, 5 mM MgCl2, and 1 mM dithiothreitol (DTT), and the mixture was added to a 384-well plate and reacted at room temperature. Next, FRET signals were measured with a Perkin Elmer Envision microplate reader. In this case, an excitation signal (excitation) was measured at 320 nm, and an emission signal (emission) was measured at 615/665 nm. The fluorescence measurement value when the SOS1 protein was not included was calculated as a background signal value, and the background signal value was subtracted from all of the measured HTRF values. The fluorescence measurement value when the synthesized compound was not included was measured as a control value, and this value was selected as a reference point of 100%. For each of the example compounds, fluorescence was measured at concentrations of 1.6, 8, 40, 200, and 1,000 nM (5 points, 5-fold), and the 50% activity inhibition value (IC50) of each of the compounds was calculated using GraphPad Prism. When the IC50 value was 50 nM or less, the inhibitory ability was denoted as +++. When the IC50 value was more than 50 nM and 100 nM or less, the inhibitory ability was denoted as ++. When the IC50 value was more than 100 nM, the inhibitory ability was denoted as +.

IC50	Compound
≤ 50 nM	CNc1cc2c(N[C@H](C)c3cc(N)cc(C(F)(F)F)c3F)nc(C)nc2cc1C(=O)N1CCOCC1 [Example 50, (R)-(4-((1-(5-amino-2-fluoro-3-(trifluoromethyl)phenyl)ethyl)amino)-2-methyl-6-(methylamino)quinazoline-7-yl)(morpholino)methanone]
≤ 50 nM	CNc1cc2c(N[C@H](C)c3cc(N)cc(C(F)F)c3)nc(C)nc2cc1C(=O)N1CCOCC1 [Example 51, (R)-(4-((1-(3-amino-5-(difluoromethyl)phenyl)ethyl)amino)-2-methyl-6-(methylamino)quinazoline-7-yl)(morpholino)methanone]
50 to 100 nM	CCNc1cc2c(N[C@H](C)c3cc(N)cc(C(F)F)c3F)nc(C)nc2cc1C(=O)N1CCOCC1 [Example 52, (R)-(4-((1-(5-amino-3-(difluoromethyl)-2-fluorophenyl)ethyl)amino)-6-(ethylamino)-2-methylquinazoline-7-yl)(morpholino)methanone]
≤ 50 nM	CNc1cc2c(N[C@H](C)c3cc(N)cc(C(F)(F)F)c3)nc(C)nc2cc1C(=O)N1CCSC1 [Example 53, (R)-(4-((1-(3-amino-5-(trifluoromethyl)phenyl)ethyl)amino)-2-methyl-6-(methylamino)quinazoline-7-yl)(thiazolidine-3-yl)methanone]
50 to 100 nM	CNc1cc2c(N[C@H](C)c3cc(N)cc(-c4ccoc4)c3)nc(C)nc2cc1C(=O)N1CCOCC1 [Example 54, (R)-(4-((1-(3-amino-5-(furan-3-yl)phenyl)ethyl)amino)-2-methyl-6-(methylamino)quinazolin-7-yl)(morpholino)methanone]
≤ 50 nM	Cc1nc(N[C@H](C)c2cc(N)cc(C(F)F)c2F)c2cc(NC(C)C)c(C(=O)N3CCOCC3)cc2n1 [Example 55, (R)-4-((1-(5-amino-3-(difluoromethyl)-2-fluorophenyl)ethyl)amino)-6-(isopropylamino)-2-methylquinazoline-7-(yl)(morpholino)methanone]
≤ 50 nM	COCCNc1cc2c(N[C@H](C)c3cc(N)cc(C(F)F)c3F)nc(C)nc2cc1C(=O)N1CCOCC1 [Example 56, (R)-(4-((1-(5-amino-3-(difluoromethyl)-2-fluorophenyl)ethyl)amino)-6-((2-methoxyethyl)amino)-2-methylquinazolin-7-yl)(morpholino)methanone]
50 to 100 nM	CNc1cc2c(N[C@H](C)c3cc(N)cc(C(F)(F)F)c3)nc(C)nc2cc1C(=O)N1CCN(C)CC1 [Example 57, (R)-(4-((1-(3-amino-5-(trifluoromethyl)phenyl)ethyl)amino)-2-methyl-6-(methylamino)quinazoline-7-yl)(4-methylpiperazin-1-yl)methanone]
≤ 50 nM	CNc1cc2c(N[C@H](C)c3cc(N)cc(C(F)(F)F)c3)nc(C)nc2cc1C(=O)N1CC2COCC2C1 (stereo partly drawn) [Example 58, (4-(((R)-1-(3-amino-5-(trifluoromethyl)phenyl)ethyl)amino)-2-methyl-6-(methylamino)quinazoline-7-yl)(tetrahydro-1H-furo[3,4-c]pyrrol-5(3H)-yl)methanone]
≤ 50 nM	CNc1cc2c(N[C@H](C)c3cc(N)cc(C(F)(F)F)c3)nc(C)nc2cc1C(=O)N1CCS(=O)(=O)CC1 [Example 59, (R)-(4-((1-(3-amino-5-(trifluoromethyl)phenyl)ethyl)amino)-2-methyl-6-(methylamino)quinazolin-7-yl)(1,1-dioxothiomorpholino)methanone]
≤ 50 nM	CNc1cc2c(N[C@H](C)c3cc(N)cc(C(F)(F)F)c3)nc(C)nc2cc1C(=O)N1CCSCC1 [Example 60, (R)-(4-((1-(3-amino-5-(trifluoromethyl)phenyl)ethyl)amino)-2-methyl-6-(methylamino)quinazolin-7-yl)(thiomorpholino)methanone]
≤ 50 nM	CNc1cc2c(N[C@H](C)c3cc(N)cc(C(F)(F)F)c3)nc(C)nc2cc1C(=O)N1CCNCC1 [Example 61, (R)-(4-((1-(3-amino-5-(trifluoromethyl)phenyl)ethyl)amino)-2-methyl-6-(methylamino)quinazoline-7-yl)(piperazine-1-yl)methanone]
50 to 100 nM	CNc1cc2c(N[C@H](C)c3cc(N)cc(C(F)(F)F)c3)nc(C)nc2cc1C(=O)N1CCC1 [Example 62, (R)-(4-((1-(3-amino-5-(trifluoromethyl)phenyl)ethyl)amino)-2-methyl-6-(methylamino)quinazoline-7-yl)(azetidine-1-yl)methanone]
≤ 50 nM	CNc1cc2c(N[C@H](C)c3cc(N)cc(C(F)F)c3F)nc(C)nc2cc1C(=O)N1CC2COCC2C1 (stereo partly drawn) [Example 63, (4-(((R)-1-(5-amino-3-(difluoromethyl)-2-fluorophenyl)ethyl)amino)-2-methyl-6-(methylamino)quinazoline-7-yl)(tetrahydro-1H-furo[3,4-c]pyrrol-5(3H)-yl)methanone]
≤ 50 nM	CNc1cc2c(N[C@H](C)c3cc(N)cc(C(F)F)c3F)nc(C)nc2cc1C(=O)N1CCS(=O)(=O)CC1 [Example 64, (R)-(4-((1-(5-amino-3-(difluoromethyl)-2-fluorophenyl)ethyl)amino)-2-methyl-6-(methylamino)quinazoline-7-yl)(1,1-dioxothiomorpholino)methanone]
50 to 100 nM	CNc1cc2c(N[C@H](C)c3cc(C)cc(N)c3)nc(C)nc2cc1C(=O)N1CCOCC1 [Example 65, (R)-(4-((1-(3-amino-5-methylphenyl)ethyl)amino)-2-methyl-6-(methylamino)quinazolin-7-yl)(morpholino)methanone]
≤ 50 nM	COCCNc1cc2c(N[C@H](C)c3cc(N)cc(C(F)(F)F)c3)nc(C)nc2cc1C(=O)N1CCS(=O)(=O)CC1 [Example 68, (R)-(4-((1-(3-amino-5-(trifluoromethyl)phenyl)ethyl)amino)-6-((2-methoxyethyl)amino)-2-methylquinazoline-7-yl)(1,1-dioxothiomorpholino)methanone]
> 100 nM	COc1cc2c(N[C@H](C)c3cc(N)cc(C(F)(F)F)c3)nc(C)nc2cc1NC1CCOCC1 [Example 69, (R)-NM-(1-(3-amino-5-(trifluoromethyl)phenyl)ethyl)-6-methoxy-2-methyl-N^7-(tetrahydro-2H-pyran-4-yl)quinazoline-4,7-diamine]
